Laboratory results: US20220184172A1, “AMPK/CASPASE-6 AXIS CONTROLS LIVER DAMAGE IN NONALCOHOLIC STEATOHEPATITIS” (The Regents of the University of California, priority 2019, published 2022)
*: point of attachment. Cbz = O=C(OCc1ccccc1)*; CH2F = FC*

How the values were obtained:
[1] = tested on: procaspase-6 cleavage in primary hepatocytes; experiment: Procaspase-6 cleavage induced by TNFα and CHX in primary hepatocytes (IB); type: cell-based, mice; details: 10 μM pretreatment 1 hr, then 30 μg/ml CHX and 50 ng/ml TNFα 2 hrs
Excerpt: FIGS. 5A-5K. AMPK phosphorylates caspase-6 to inhibit its cleavage and activation. FIG. 5A. […] IB analysis of cell lysates. n=3. Mean±SD. *, P<0.05, two-way ANOVA. FIG. 5B. […] Cell lysates were subject to caspase-6 activity assay. Mean±SD. *, P<0.05. FIG. 5C. Caspase-6 Ser^257 locates within AMPK substrate motif. FIG. 5C. discloses SEQ ID NOS 57-63, respectively, in order of appearance. FIG. 5D. In vitro kinase assay using recombinant caspase-6, and recombinant AMPKα1β1γ1 or AMPKα2β1γ1 active kinase. FIG. 5E. Alignment of caspase-6 sequence. FIG. 5E. discloses SEQ ID NOS 64-67, respectively, in order of appearance. FIG. 5F. HEK293T cells overexpressing caspase-6-myc WT, S^257A, S^257D or S^257E mutant were treated with 10 μg/ml CHX and 25 ng/ml TNFα for 2 hrs. IB analysis of cell lysates. FIGS. 5G-5J. C57BL/6J mice were fed CD-HFD for 6 weeks, followed by intraperitoneally injection of 25 mg/kg A-769662 or vehicle daily for 2 weeks while continuous CD-HI-D. Mice were sacrificed 6 hrs after last injection. FIG. 5G. IB analysis of liver lysates. n=5. FIG. 5H. Liver lysates were subject to caspase-6 activity assay. n=7. FIG. 5I. Liver sections stained as indicated therein (aCasp6 and DAPI); in the merged image sections, the different stains correspond to the grayscale shades as indicated in the single stained images to the left. Scale bar=50 μm. […] Quantification of aCasp6 staining per field in FIG. 5I. n=7. […]

[2] = tested on: CD-HFD-fed Flox and LAKO mice; experiment: Caspase-6 inhibitor Z-VEID-FMK in CD-HFD-fed Flox and LAKO mice; type: in vivo
Excerpt: FIG. 4A. […] Scale bar=50 μm. FIG. 4B. […] FIG. 4F. […] Scale bar=100 μm. FIG. 4G. […] Scale bar=50 μm.
FIG. 6A. […] FIG. 6B. […] FIG. 6C. […] FIG. 6D. […] FIG. 6E. […] FIG. 6F.
FIGS. 14A-14G. […] FIG. 14A. […] Scale bar=100 μm.

[3] = tested on: cleaved caspase-3 and -7 in primary hepatocytes; experiment: Caspase cascade after CHX plus TNFα and medium change in primary hepatocytes (IB); type: cell-based, mice; details: 25 μM pretreatment 1 hr, CHX and TNFα 2 hrs, medium changed for 4 hrs
Method: FIGS. 16A-16D. Caspase-6 sustain activation of caspase cascade to induce apoptosis. FIG. 16A. HepG2 cells transfected with scrambled RNA or caspase-6 siRNA were treated with vehicle or 300 μg/ml CHX and 50 ng/ml TNFα for 20 hrs. Viability was measured by CCK-8 assay. Data are shown as mean±SD. *, P<0.05, two-way ANOVA. FIG. 16B. HepG2 cells transfected with scrambled RNA or Caspase-6 siRNA were treated with vehicle or 30 μg/ml CHX and 50 ng/ml TNFα for 2 hrs. Medium was changed to remove treatment. Cells were harvested at indicated time points. Cell lysates were subject to IB analysis. FIG. 16C. Isolated primary hepatocytes were pretreated with 25 μM Z-VEID-FMK (VEID) (SEQ ID NO: 71) for 1 hr and treated with 30 μg/ml CHX and 50 ng/ml TNFα for 2 hrs. Medium was changed to remove treatment for 4 hrs. Cell lysates were subject to IB analysis. FIG. 16D. Proposed model for roles of AMPK/caspase-6 axis in the regulation of NASH-associated liver damage. […]
Western blot was performed as previously described(11). […] Supernatants were collected and analyzed with BCA (Thermo Scientific) to quantify protein content. […] Individual proteins were detected with specific antibodies and visualized on film using horseradish peroxidase-conjugated secondary antibodies (Fisher Scientific) and SuperSignal West Pico PLUS Chemilunminescent Substrate (Thermo Scientific).

[4] = both Flox and LAKO mice, 5 mg/kg i.p. every other day for two weeks

procaspase-6 cleavage caused by TNFα and CHX [1] | cleaved caspase-3 and -7 [3] | Molecule | difference in liver damage between Flox and LAKO mice ([2]; 5 mg/kg i.p. every other day for two weeks) | cytosolic cytochrome c (liver fractions, IB) ([2]; both Flox and LAKO mice, 5 mg/kg i.p. every other day for 2 weeks) | liver fibrosis (Sirius red fibrosis area, liver hydroxyproline) [2, 4] | number of apoptotic hepatocytes (TUNEL) [2, 4] | serum ALT activity [2, 4]
largely attenuated | – | COC[C@@H]1CCCN1S(=O)(=O)c1ccc2c(c1)C(=O)C(=O)N2 [caspase-3 and -7 inhibitor] | – | – | – | – | –
– | significant decrease | Z-VEID-FMK (Cbz-VEID-CH2F) | abrogated | decreased | reduced | significantly reduced | decreased
